Measured values published in PMC12526275, “hERG Channel Blockade and Antagonistic Interactions of Three Steroidal Alkaloids from Fritillaria Species” (Molecules, 2025).

What was measured:
Format in all cases: cell-based
[1] = target: T1, hERG channel (human Ether-a-go-go-Related Gene, Kv11.1) (Homo sapiens, UniProt Q12809); assay: manual whole-cell patch clamp, hERG tail currents in stably expressing HEK293 cells
T1 construct: gene KCNH2

[2] = target: T2, hERG channel mutant S631A (Homo sapiens, UniProt Q12809, S631A); assay: whole-cell patch clamp, transiently transfected HEK293 cells; inhibition at […]
T2 construct: gene KCNH2
T2 sequence (Q12809 whole entry S631A): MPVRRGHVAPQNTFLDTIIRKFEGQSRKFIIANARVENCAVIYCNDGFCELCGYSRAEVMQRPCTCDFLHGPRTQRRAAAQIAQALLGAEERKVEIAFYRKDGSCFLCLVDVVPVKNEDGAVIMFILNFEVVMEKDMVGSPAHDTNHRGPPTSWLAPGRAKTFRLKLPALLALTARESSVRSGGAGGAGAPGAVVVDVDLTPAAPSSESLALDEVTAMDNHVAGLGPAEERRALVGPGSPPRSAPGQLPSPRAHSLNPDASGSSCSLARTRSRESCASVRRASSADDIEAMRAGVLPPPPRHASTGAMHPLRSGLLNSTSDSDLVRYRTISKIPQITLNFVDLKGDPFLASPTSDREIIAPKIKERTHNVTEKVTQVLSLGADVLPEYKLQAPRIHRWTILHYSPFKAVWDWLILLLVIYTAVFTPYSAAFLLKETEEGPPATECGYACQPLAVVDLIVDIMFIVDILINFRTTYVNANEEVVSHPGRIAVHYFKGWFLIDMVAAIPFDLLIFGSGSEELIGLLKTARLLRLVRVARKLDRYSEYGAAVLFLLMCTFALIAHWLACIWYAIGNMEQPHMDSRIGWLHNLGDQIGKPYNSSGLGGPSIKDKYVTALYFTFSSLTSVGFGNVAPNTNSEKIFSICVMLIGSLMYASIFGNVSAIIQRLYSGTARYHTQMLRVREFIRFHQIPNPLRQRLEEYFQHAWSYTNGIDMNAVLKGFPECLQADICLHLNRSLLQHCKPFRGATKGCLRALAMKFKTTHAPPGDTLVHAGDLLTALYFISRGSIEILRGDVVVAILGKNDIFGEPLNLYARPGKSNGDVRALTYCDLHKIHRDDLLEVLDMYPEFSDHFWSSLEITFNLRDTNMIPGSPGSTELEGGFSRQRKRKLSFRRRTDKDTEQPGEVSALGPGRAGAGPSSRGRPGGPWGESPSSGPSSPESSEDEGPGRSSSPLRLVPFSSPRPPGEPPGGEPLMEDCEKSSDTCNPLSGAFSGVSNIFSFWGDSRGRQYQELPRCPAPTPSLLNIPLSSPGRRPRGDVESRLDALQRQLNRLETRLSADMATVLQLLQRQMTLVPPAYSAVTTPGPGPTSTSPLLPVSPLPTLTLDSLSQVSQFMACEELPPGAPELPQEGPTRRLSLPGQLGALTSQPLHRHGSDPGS

[3] = target: T1, hERG channel (human Ether-a-go-go-Related Gene, Kv11.1); assay: manual whole-cell patch clamp, hERG tail currents in stably expressing HEK293 cells; IC50 extrapolated (maximum tested […])

T1 sequence (Q12809 whole entry): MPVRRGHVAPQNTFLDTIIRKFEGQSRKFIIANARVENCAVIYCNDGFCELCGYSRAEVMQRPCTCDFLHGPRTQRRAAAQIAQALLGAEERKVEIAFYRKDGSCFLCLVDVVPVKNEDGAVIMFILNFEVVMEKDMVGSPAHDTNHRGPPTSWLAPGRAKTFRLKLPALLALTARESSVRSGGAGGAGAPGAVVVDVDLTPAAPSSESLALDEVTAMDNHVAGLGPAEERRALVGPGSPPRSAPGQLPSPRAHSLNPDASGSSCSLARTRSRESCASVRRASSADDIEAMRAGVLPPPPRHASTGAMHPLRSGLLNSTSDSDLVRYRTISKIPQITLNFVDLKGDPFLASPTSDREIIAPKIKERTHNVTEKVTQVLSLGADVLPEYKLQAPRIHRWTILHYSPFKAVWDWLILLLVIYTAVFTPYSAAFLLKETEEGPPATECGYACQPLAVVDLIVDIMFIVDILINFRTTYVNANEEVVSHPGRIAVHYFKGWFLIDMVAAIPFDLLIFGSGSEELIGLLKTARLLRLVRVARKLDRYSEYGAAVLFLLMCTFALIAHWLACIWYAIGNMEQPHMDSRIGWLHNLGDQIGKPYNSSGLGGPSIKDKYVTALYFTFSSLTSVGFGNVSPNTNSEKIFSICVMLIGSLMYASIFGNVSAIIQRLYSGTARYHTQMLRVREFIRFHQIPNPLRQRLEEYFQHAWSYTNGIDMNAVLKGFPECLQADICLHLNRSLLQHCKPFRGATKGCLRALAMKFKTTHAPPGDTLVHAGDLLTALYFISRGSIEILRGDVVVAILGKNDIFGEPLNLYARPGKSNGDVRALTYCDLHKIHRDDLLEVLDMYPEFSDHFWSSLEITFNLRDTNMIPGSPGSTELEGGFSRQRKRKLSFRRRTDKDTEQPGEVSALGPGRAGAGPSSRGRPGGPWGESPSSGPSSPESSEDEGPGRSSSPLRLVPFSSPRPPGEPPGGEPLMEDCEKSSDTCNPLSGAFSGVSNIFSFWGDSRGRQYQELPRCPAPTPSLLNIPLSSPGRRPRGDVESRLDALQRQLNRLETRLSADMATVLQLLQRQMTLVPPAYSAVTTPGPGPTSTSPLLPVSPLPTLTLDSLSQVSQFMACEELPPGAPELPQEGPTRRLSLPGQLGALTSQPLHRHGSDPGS

Compound C[C@H]1CC[C@@H]2N(C1)C[C@H]1[C@@H]3C[C@H]4[C@@H](C[C@H](O)[C@H]5C[C@@H](O)CC[C@@]54C)[C@@H]3CC[C@@H]1[C@]2(C)O [peimine] has an IC50 [1] of 26.1 ± 3.5 µM.
For C[C@H]1CC[C@@H]2N(C1)C[C@H]1[C@@H]3C[C@H]4[C@@H](CC(=O)[C@H]5C[C@@H](O)CC[C@@]54C)[C@@H]3CC[C@@H]1[C@]2(C)O [peiminine], the inhibition at 100 µM [2] was 12.3 ± 1.4% and the IC50 [1] was 36.8 ± 2.5 µM.
Compound C[C@H]1CC[C@@H]2N(C1)C[C@H]1[C@@H]3C[C@H]4[C@@H](CC(=O)[C@H]5C[C@@H](O)CC[C@@]54C)[C@@H]3CC[C@H]1[C@]2(C)O [sipeimine] has an IC50 [3] of about 47.6 µM.
